Paper PMC3335078, “Length and Amino Acid Sequence of Peptides Substituted for the 5-HT3A Receptor M3M4 Loop May Affect Channel Expression and Desensitization” (PLoS ONE, 2012)

What was measured:
[1] = target: T1, 5-HT3A-A5 (M3M4 loop replaced by five alanines) (Mus musculus, UniProt P23979); experiment: Two-electrode voltage clamp, oocytes expressing 5-HT3A-A5; assay type: cell-based
T1 construct: expressed in transfected cells; host or cells: Xenopus laevis oocytes injected with mRNA
T1 sequence (P23979 with tags, fused parts or gaps isoform P23979-2 limits assumed): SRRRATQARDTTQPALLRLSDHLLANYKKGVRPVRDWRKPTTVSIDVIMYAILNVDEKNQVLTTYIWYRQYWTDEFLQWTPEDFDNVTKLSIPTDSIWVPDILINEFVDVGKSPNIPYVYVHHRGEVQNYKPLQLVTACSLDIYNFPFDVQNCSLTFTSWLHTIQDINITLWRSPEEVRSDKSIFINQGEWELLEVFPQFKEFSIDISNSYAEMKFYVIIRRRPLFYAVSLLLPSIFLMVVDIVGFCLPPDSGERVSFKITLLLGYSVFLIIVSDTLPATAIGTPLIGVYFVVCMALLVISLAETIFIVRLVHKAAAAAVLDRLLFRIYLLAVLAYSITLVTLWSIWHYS
Text: (§1) The mouse 5-HT3A cDNA with an N-terminal V5 epitope tag was cloned into the pXOON vector as previously described, and is referred to in this paper as “wild-type” (WT). The starting construct for all of the M3M4 loop replacement constructs used in this work was the 5-HT3A-ΔM3M4 construct formed by splicing the cytoplasmic end of M3 (M3-LVHK/QDLQRP…) to the cytoplasmic end of M4 (…WLRVGY/VLDRLL-M4). The splice was made at the site of the “/” to yield the sequence M3-LVHK/VLDRLL-M4 [34]. This removed 115 residues predicted to form the M3M4 loop.
(§2) The construction of the 5-HT3A-glvM3M4 chimera with the 5-HT3A M3M4 loop replaced by the GLIC heptapeptide M3M4 loop (SQPARAA) was described previously. Point mutations, alanine and Gly-Ser-Ala insertions into the 5-HT3A-ΔM3M4 construct were generated with the Quikchange site directed mutagenesis procedure (Stratagene, La Jolla, CA). The entire coding region of all mutant constructs was verified by DNA sequencing (Albert Einstein College of Medicine DNA Sequencing Facility). The pXOON plasmid was linearized using NheI and capped mRNA prepared with T7 RNA polymerase (mMessage mMachine, Ambion, Austin, TX).
Use of Xenopus laevis in this study was carried out in strict accordance with the recommendations in the Guide for the Care and Use of Laboratory Animals of the National Institutes of Health. The protocol was approved by the Albert Einstein College of Medicine Animal Care and Use Committee (Protocol Number: 20081201). All surgery was performed under tricaine anesthesia, and all efforts were made to minimize suffering. Oocyctes were harvested from Xenopus (Nasco Science, Fort Atkinson, WI) anesthetized with 0.15% tricaine. […]
(§3) Currents were recorded under two-electrode voltage clamp from oocytes 2–5 d post-injection as described previously. […]
(§4) Desensitization rates were determined by fitting a single exponential decay function to the current data with Prism 4 software (GraphPad Software). Significant differences compared with wild-type were determined by a one-way ANOVA (p<0.05) using Dunnett's multiple comparison post-hoc test (p<0.05). […]

[2] = target: T2, 5-HT3A M3M4 loop SQAPARA construct (Mus musculus, UniProt P23979); experiment: Two-electrode voltage clamp, oocytes expressing SQAPARA loop construct; assay type: cell-based; details: 10 µM 5-HT, Xenopus oocytes
T2 construct: expressed in transfected cells; host or cells: Xenopus laevis oocytes injected with mRNA
T2 sequence (P23979 with tags, fused parts or gaps): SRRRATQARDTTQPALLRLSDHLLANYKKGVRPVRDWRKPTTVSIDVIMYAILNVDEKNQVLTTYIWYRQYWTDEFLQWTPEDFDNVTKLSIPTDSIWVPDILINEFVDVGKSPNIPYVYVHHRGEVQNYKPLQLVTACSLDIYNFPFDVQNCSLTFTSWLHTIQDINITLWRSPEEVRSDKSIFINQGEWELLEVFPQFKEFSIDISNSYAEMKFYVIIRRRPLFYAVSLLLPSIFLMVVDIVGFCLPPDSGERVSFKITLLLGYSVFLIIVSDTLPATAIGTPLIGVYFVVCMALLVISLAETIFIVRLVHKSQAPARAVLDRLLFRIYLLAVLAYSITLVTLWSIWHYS
Text: as §1
The construction of the 5-HT3A-glvM3M4 chimera with the 5-HT3A M3M4 loop replaced by the GLIC heptapeptide M3M4 loop (SQPARAA) was described previously. Point mutations, alanine and Gly-Ser-Ala insertions into the 5-HT3A-ΔM3M4 construct were generated with the Quikchange site directed mutagenesis procedure (Stratagene, La Jolla, CA). […]
as §3, §4

5-HT3A-A5 = target: T3, 5-HT3A-A5 (Mus musculus, UniProt P23979); experiment: Radioactive 5-HT binding to oocytes expressing 5-HT3A-A5; details: 150 nM [3H]5-HT + 10 µM 5-HT, 5 min, 45 s cold wash
T3 construct: expressed in transfected cells; host or cells: Xenopus laevis oocytes injected with mRNA
Procedure: Assays were terminated by five washes with ice cold CFFR buffer, followed by solubilization of the oocytes individually with 200 µl 5% SDS. Total wash time was 45 s. […] All data points represent the average of at least fifteen individual oocytes derived from three separate oocyte isolations.
To determine the extent of non-specific binding, all binding experiments were performed in parallel with diethylpyrocarbonate-(DEPC)-treated-water injected oocytes or uninjected oocytes.

[3] = target: T4, 5-HT3A-A1 (M3M4 loop replaced by one alanine) (Mus musculus, UniProt P23979, DELINS338-452A); experiment: Two-electrode voltage clamp, oocytes expressing 5-HT3A-A1; assay type: cell-based
T4 construct: expressed in transfected cells; host or cells: Xenopus laevis oocytes injected with mRNA
T4 sequence (P23979 with tags, fused parts or gaps isoform P23979-2 DELINS338-452A limits assumed): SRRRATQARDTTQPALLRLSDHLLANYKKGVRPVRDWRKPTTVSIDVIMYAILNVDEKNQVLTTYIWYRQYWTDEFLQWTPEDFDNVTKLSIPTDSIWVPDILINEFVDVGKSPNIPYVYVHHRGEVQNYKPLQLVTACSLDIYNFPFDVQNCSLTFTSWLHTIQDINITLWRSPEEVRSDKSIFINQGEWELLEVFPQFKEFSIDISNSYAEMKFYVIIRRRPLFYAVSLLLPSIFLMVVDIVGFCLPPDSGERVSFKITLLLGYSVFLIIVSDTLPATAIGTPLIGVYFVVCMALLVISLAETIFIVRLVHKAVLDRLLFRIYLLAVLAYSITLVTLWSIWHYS
Text: as §1, §2
Use of Xenopus laevis in this study was carried out in strict accordance with the recommendations in the Guide for the Care and Use of Laboratory Animals of the National Institutes of Health. The protocol was approved by the Albert Einstein College of Medicine Animal Care and Use Committee (Protocol Number: 20081201). All surgery was performed under tricaine anesthesia, and all efforts were made to minimize suffering. Oocyctes were harvested from Xenopus (Nasco Science, Fort Atkinson, WI) anesthetized with 0.15% tricaine. Oocyctes were defolliculated by incubation in 2 mg ml^−1 Type 1A collagenase (Sigma-Aldrich, St. Louis, MO) in OR2 (85 mM NaCl, 2 mM KCl, 1 mM MgCl2, and 5 mM HEPES; pH adjusted to 7.5 with NaOH) for a 60 or 75 min. Oocytes were washed in OR2 and stored at 16°C in SOS medium: 100 mM NaCl, 2 mM KCl, 1 mM MgCl2, 1.8 mM CaCl2 5 mM HEPES, pH 7.5 with 100 IU ml^−1 penicillin, 100 µg ml^−1 streptomycin, and 250 ng ml^−1 amphotericin B (Invitrogen, Carlsbad, CA) and 5% horse serum (Sigma-Aldrich). 24 hrs following isolation, oocyctes were injected with 23 nl (2.3 ng) of mRNA and were kept in SOS media for 2–5 d at 16°C.
Currents were recorded under two-electrode voltage clamp from oocytes 2–5 d post-injection as described previously. […] The perfusion chamber volume was 200 µl. […]
as §4

For `NCCc1c[nH]c2ccc(O)cc12` [5-HT, 5-hydroxytryptamine], which “10–90% Activation rise time” value ([1]; 10 µM 5-HT) is on record?
Its value is 797 ± 108 ms.

And the “Imax (peak current)” value ([1]; 10 µM 5-HT, Xenopus oocytes, -60 mV)?
The value was 2500±500 nA.

What about the “Desensitization time constant τ” value ([1]; prolonged 10 µM 5-HT, may be limited by solution exchange) of the same compound?
Its value is 6 ± 1 s.

What about the Peak current [2] of the same compound?
Its Peak current is 87±30 nA.

What about the “Radiolabeled 5-HT bound per oocyte” value (5-HT3A-A5) of the same compound?
Its value is 0.40±0.03 pmol per oocyte.

And the “10–90% Activation rise time” value ([3]; 10 µM 5-HT)?
The value was 1055 ± 17 ms.

What about the “Desensitization time constant τ” value ([3]; initial 10 µM 5-HT application, may be limited by solution exchange) of the same compound?
The value was 7 ± 1 s.

What about the “Imax (peak current)” value ([3]; initial application of 10 µM 5-HT, Xenopus oocytes, -60 mV) of the same compound?
Its value is 1800±380 nA.

And the “Current induced by subsequent 5-HT application” value ([3]; subsequent 5-HT application 360 s later)?
Its value is 159±5 nA.
